# What was measured:
# alcoholic liver fibrosis = conditions: baboons; cited from earlier work
# [1] = biological target: T1, membranes prepared from EA-Hy926 cells (integrin αvβ3) (Homo sapiens, UniProt P05106+P06756); assay: Competitive 125I-echistatin binding to membranes prepared from EA-Hy926 cells; conditions: competition with 125I-echistatin, 1 hour at 37° C., read-out: affinity (inhibition constant)
# T1 construct: membranes from the human endothelial adenocarcinoma cell line EA-Hy926 were prepared; endogenous in cells; host or cells: EA-Hy926 (human endothelial cell line), purified membrane fraction
# Description: The inhibition constant was measured using a previously-described membrane binding assay (Indrevoll et al, Bioorg & Med Chem Lett, 2006, 16, 6190-6193). In brief, membranes from the human endothelial adenocarcinoma cell line EA-Hy926 were prepared and the Kd calculated for the purified membrane fraction. A competitive binding assay was then established to measure inhibition constants. ^125I-echistatin (GE Healthcare; Code IM304) was used as the labelled ligand and cold echistatin as a reference standard. A total of sixteen dilutions of cold test compound (either cold echistatin or cold PET tracer) were prepared and mixed with a combination of ^125I-echistatin and membrane prior to incubation for 1 hour at 37° C. Following several washes, the bound material was harvested on a filter using a Skatron micro harvester. The filterspots were finally excised and counted in a Packard γ-counter.
# rat livers = assay type: in vivo
# Description: Outbred male Sprague Dawley rats (180-200 g; Charles River) were used in all bile duct ligation (BDL) and sham studies. After 6 days acclimatization rats were divided into 2 groups (BDL group and sham group). For the BDL animals, the abdomen was shaved and swabbed with betadine solution followed by 5 mg/kg carprofen subcutaneously (s.c.) and 5 mg/kg bupronorphine s.c. and under Isoflurane anaesthesia a mid-line laparotomy was performed and the common bile duct located. Bile duct was double ligated, the first ligation made between the junction of the hepatic ducts and the second above the entrance of the pancreatic ducts. The second group (sham animals) abdomen was shaved and swabbed with betadine solution followed by 5 mg/kg carprofen s.c. and 5 mg/kg bupronorphine s.c. Animals underwent sham surgery where bile duct was manipulated and a suture passed under the bile duct. Before closing 2-3 ml saline was administered into the peritoneum of each animal. […] Animals were closely monitored for the duration of the experiment.
# For assessment of PET Tracer 1 in the BDL rat model, static PET images were acquired longitudinally (imaged at 60-90 minutes post-injection) at days 2, 5, 9, 15 and 30 post bile duct ligation surgery or sham surgery. […] Data was analysed using Asipro and Amide software. […]
Compound,effect on alcoholic liver fibrosis (alcoholic liver fibrosis),Ki [1],difference in uptake between BDL liver and sham (rat livers; day 30 post surgery),difference in liver retention between BDL and sham operated animals (rat livers; days 2-15 post surgery (p<0.05))
Polyenephosphatidylcholine [Polyenephosphatidylcholine (PPC)],prevented alcoholic liver fibrosis,–,–,–
N=C(N)NCCC[C@@H]1NC(=O)[C@@H]2CSSC[C@H](NC(=O)[C@H](CC(=O)O)NC(=O)CNC1=O)C(=O)N[C@@H](Cc1ccccc1)C(=O)N[C@H](C(=O)NCCOCCOCCOCCNC(=O)COCC(N)=O)CSCC(=O)N[C@@H](CCCCNC(=O)COCC(=O)NCCOCCOCCOCCOCCOCCNC(=O)CO/N=C/c1ccc([18F])cc1)C(=O)N2 [PET Tracer 1],–,5 to 10 nM,no significant difference,significant difference

# Reference: patent publication US20120100072A1, “PET IMAGING OF FIBROGENESIS” (GE HEALTHCARE LIMITED, priority 2009, published 2012)
